Legend:
[1] = tested on: protein increase after paracentesis; test: Protein increase in aqueous humor after paracentesis; assay type: in vivo, albino rabbits
Protocol: The solutions of the following formulas were used.
Totally 28 male albino rabbits (4 rabbits×7 groups) with a body weight of about 2 kg werr used. They had been confirmed, before the experiment, to have mydriatic response to 1% atropine for at least 4 hours.
50 μl each of 1% atropine solution was instilled into both eyes of the animals one hour before the 1st paracenthesis, in which approx. 0.2 ml/eye of aqueous humor (primary aqueous humor) was collected. Topical application of 50 μl each of the test drug solutions was conducted 30 min before the paracenthesis. Pupil diameter of each eye was measured with a slide caliper immediately before and 10 min after the paracenthesis. The 2nd paracenthesis was conducted 90 min after the 1st one, in which approx. 0.2 ml/eye of aqueous humor (secondary aqueous humor) was collected.

[2] = tested on: experimental ophthalmitis induced by bovine serum albumin in white rabbits (ophthalmitis II); test: Anti-inflammatory effect in ophthalmitis II (intravenous bovine serum albumin relapse), gross severity scores; assay type: in vivo; conditions: for Anterior chamber opacity, degree of inhibition relative to physiological saline group / Balbar conjunctival injection, degree of inhibition relative to physiological saline group / Corneal opacity, degree of inhibition relative to physiological saline group / Discharge, degree of inhibition relative to physiological saline group / External + Internal Grand Total Score, degree of inhibition relative to physiological saline group / External Segment Total Score, degree of inhibition relative to physiological saline group / Internal Segment Total Score, degree of inhibition relative to physiological saline group / Iridic injection, degree of inhibition relative to physiological saline group / Morphological change of iris, degree of inhibition relative to physiological saline group / Palpebral conjunctival edema, degree of inhibition relative to physiological saline group / Palpebral conjunctival injection, degree of inhibition relative to physiological saline group: ophthalmitis II; for Anterior chamber opacity score (Internal Segment) / Balbar conjunctival injection score (External Segment) / Corneal opacity score (External Segment) / Discharge score (External Segment) / External + Internal Grand Total Score / External Segment Total Score / Internal Segment Total Score / Iridic injection score (Internal Segment) / Morphological change of iris score (Internal Segment) / Palpebral conjunctival edema score (External Segment) / Palpebral conjunctival injection score (External Segment): ophthalmitis II, 3, 6, 12 and 24 hours after intravenous BSA, mean ± SE
Protocol: Seventeen male white rabbits weighing about 2 kg were used. They were fed with 80 g of Labo RG-RO (Nippon Agricultural Co., Ltd.) daily and had free access to tap water.
After 28 days when ophthalmitis I had nearly recovered, 2.5% BSA solution was administered in a dose of 25 mg/ml/kg into the auricular vein to cause ophthalmitis (ophthalmitis II). The severity of ophthalmitis was rated according to the rating scale^(1) of Yamauchi et al., based on the Draize method in which an increased weight given to the internal segment of the eye. Observation was made with a frequency of once in one or two days during the peak period of inflammation and once in three or four days before and after the peak period for ophthalmitis I and 3, 6, 12 and 24 hours after intravenous injection of BSA for ophthalmitis II.
^(1) Hideyasu Yamauchi, Makoto Ingu, Tadashi Iso and Kozo Uda: Anti-inflammatory effect of fluorometholone ophthalmic solution in experimental uveitis in rabbits, Folia Ophthalmologica Japonica, 24: 969-79 (1973).
Gross observation was made on the day after injection of BSA into the vitreous body and with the animals arranged in the decreasing order of severity of ocular inflammation, grouping was carried out in such a manner that the intensity distribution would be uniform over the groups. Thus, a physiological saline group of 7 animals, a 0.1% Compound [I] instillation group of 4 animals and a 0.5% Compound [I] instillation group of 5 animals were provided. After this grouping procedure, the test drugs and saline were respectively instilled into both eyes of the rabbits, 50 μl per dose, 4 times a day. For induction of ophthalmitis II, each drug was instilled into both eyes, 50 μl per dose, immediately after injection of BSA into the auricular vein and at 1-hour intervals thereafter, for a total of 14 times.

For Nc1c(CC(=O)[O-])cccc1C(=O)c1ccc(Br)cc1.O.[Na+] [Compound [I], Sodium 3-(4-bromobenzoyl)-2-aminophenylacetate monohydrate], the “Effect on protein increase compared with 0.5% indomethacin” value ([1]; 0.01% of Compound [I]) was “equivalent to that of 0.5% indomethacin”, the “Inhibition (protein increase)” value ([1]; content 0.0001%) was 6.3% and the “Inhibition (protein increase)” value ([1]; content 0.001%) was 26.3%. For the same molecule, the “Inhibition (protein increase)” value ([1]; content 0.01%) was 62.9%, the “Inhibition (protein increase)” value ([1]; content 0.1%) was 87.8% and the “Anti-inflammatory effect compared with indomethacin” value ([1]; miosis and protein increase after paracentesis) was “stronger anti-inflammatory effect than indomethacin”. For the same molecule, the “Inhibitory activity on protein increase after paracentesis” value ([1]; rabbit, in vivo) was “strong and dose-related inhibitory activity on protein increase after paracenthesis”, the “Anterior chamber opacity, degree of inhibition relative to physiological saline group” value ([2]; 0.1%) was -47.4% and the “Balbar conjunctival injection, degree of inhibition relative to physiological saline group” value ([2]; 0.1%) was 27.0%. For the same molecule, the “Corneal opacity, degree of inhibition relative to physiological saline group” value ([2]; 0.1%) was 57.1%, the “Discharge, degree of inhibition relative to physiological saline group” value ([2]; 0.1%) was 100% and the “External + Internal Grand Total Score, degree of inhibition relative to physiological saline group” value ([2]; 0.1%) was 35.7%. For the same molecule, the “External Segment Total Score, degree of inhibition relative to physiological saline group” value ([2]; 0.1%) was 32.7%, the “Internal Segment Total Score, degree of inhibition relative to physiological saline group” value ([2]; 0.1%) was 40.7% and the “Iridic injection, degree of inhibition relative to physiological saline group” value ([2]; 0.1%) was 61.6%. The “Morphological change of iris, degree of inhibition relative to physiological saline group” value ([2]; 0.1%) was 44.2%, the “Palpebral conjunctival edema, degree of inhibition relative to physiological saline group” value ([2]; 0.1%) was 45.0% and the “Palpebral conjunctival injection, degree of inhibition relative to physiological saline group” value ([2]; 0.1%) was 29.8%. For the same molecule, the “Anterior chamber opacity score (Internal Segment)” value ([2]; 0.1%) was 2.8 ± 0.8, the “Balbar conjunctival injection score (External Segment)” value ([2]; 0.1%) was 8.1 ± 0.4 and the “Corneal opacity score (External Segment)” value ([2]; 0.1%) was 0.6 ± 0.2. The “Discharge score (External Segment)” value ([2]; 0.1%) was 0, the “External + Internal Grand Total Score” value ([2]; 0.1%) was 21.8 ± 2.1 and the “External Segment Total Score” value ([2]; 0.1%) was 13.1 ± 1.1. The “Internal Segment Total Score” value ([2]; 0.1%) was 8.0 ± 1.2, the “Iridic injection score (Internal Segment)” value ([2]; 0.1%) was 2.8 ± 0.1 and the “Morphological change of iris score (Internal Segment)” value ([2]; 0.1%) was 2.4 ± 0.4. The “Palpebral conjunctival edema score (External Segment)” value ([2]; 0.1%) was 1.1 ± 0.4, the “Palpebral conjunctival injection score (External Segment)” value ([2]; 0.1%) was 4.0 ± 0.3 and the “Anterior chamber opacity, degree of inhibition relative to physiological saline group” value ([2]; 0.5%) was -47.4%. For the same molecule, the “Balbar conjunctival injection, degree of inhibition relative to physiological saline group” value ([2]; 0.5%) was 27.0%, the “Corneal opacity, degree of inhibition relative to physiological saline group” value ([2]; 0.5%) was 57.1% and the “Discharge, degree of inhibition relative to physiological saline group” value ([2]; 0.5%) was 100%. The “External + Internal Grand Total Score, degree of inhibition relative to physiological saline group” value ([2]; 0.5%) was 34.2%, the “External Segment Total Score, degree of inhibition relative to physiological saline group” value ([2]; 0.5%) was 31.4% and the “Internal Segment Total Score, degree of inhibition relative to physiological saline group” value ([2]; 0.5%) was 33.3%. For the same molecule, the “Iridic injection, degree of inhibition relative to physiological saline group” value ([2]; 0.5%) was 54.8%, the “Morphological change of iris, degree of inhibition relative to physiological saline group” value ([2]; 0.5%) was 32.6% and the “Palpebral conjunctival edema, degree of inhibition relative to physiological saline group” value ([2]; 0.5%) was 55.0%. For the same molecule, the “Palpebral conjunctival injection, degree of inhibition relative to physiological saline group” value ([2]; 0.5%) was 60.5%, the “Anterior chamber opacity score (Internal Segment)” value ([2]; 0.5%) was 2.8 ± 0.5 and the “Balbar conjunctival injection score (External Segment)” value ([2]; 0.5%) was 8.1 ± 0.3. The “Corneal opacity score (External Segment)” value ([2]; 0.5%) was 0.6 ± 0.2, the “Discharge score (External Segment)” value ([2]; 0.5%) was 0 and the “External + Internal Grand Total Score” value ([2]; 0.5%) was 22.3 ± 1.1. The “External Segment Total Score” value ([2]; 0.5%) was 13.3 ± 0.6, the “Internal Segment Total Score” value ([2]; 0.5%) was 9.0 ± 0.7 and the “Iridic injection score (Internal Segment)” value ([2]; 0.5%) was 3.3 ± 0.3. The “Morphological change of iris score (Internal Segment)” value ([2]; 0.5%) was 2.9 ± 0.3, the “Palpebral conjunctival edema score (External Segment)” value ([2]; 0.5%) was 0.9 ± 0.2 and the “Palpebral conjunctival injection score (External Segment)” value ([2]; 0.5%) was 3.7 ± 0.1. The “Inhibitory effect on inflammatory symptoms induced by intravenous antigen” value ([2]; both concentrations (0.1% and 0.5%), gross observation) was “substantially complete inhibition at both concentrations”.
